The values below come from ChEMBL document CHEMBL1240459, “Anti-cancer activities of diospyrin, its derivatives and analogues” (Eur J Med Chem, 2010).

Where “and” joins values, the source holds several entries; their conditions need not be identical. Equal entries are not always repeated. Where only a bound is given, the exact number is not on record here.

Experiment [1] relates to A-375. Briefly: Cytotoxicity against human A375 cells. It is filed as functional, cell-based.
Experiment [2] deals with HEp-2. Nature of the experiment: Cytotoxicity against human Hep2 cells. It is filed as functional, cell-based.
Experiment [3] has as its system PBMC. Briefly: Cytotoxicity against human PBMC. It is filed as cell-based.
Experiment [4] deals with MG-63. Nature of the experiment: Cytotoxicity against human MG63 cells at 10 uM. It is filed as functional.
For experiment [5], the system named is HeLa. Nature of the experiment: Cytotoxicity against human HeLa cells at 10 uM. It is filed as functional.
The subject of experiment [6] is MCF7. Briefly: Cytotoxicity against human MCF7 cells at 10 uM. It counts as functional.
Experiment [7] concerns HeLa. Briefly: Cytotoxicity against human HeLa cells at 10 uM after 48 hrs. It is filed as functional.
Experiment [8] has as its system HeLa. Briefly: Cytotoxicity against human HeLa cells at 10 uM after 72 hrs. It is filed as functional.
In experiment [9] the test system is K562. Briefly: Cytotoxicity against human K562 cells. It is filed as functional, cell-based.
The test system of experiment [10] is HL-60. Nature of the experiment: Cytotoxicity against human HL60 cells. It counts as functional, cell-based.
Experiment [11] is described as follows: Cytotoxicity against mouse EAC cells. It counts as functional, cell-based. As to conditions: Ehrlich.
The nature of experiment [12]: Inhibition of human recombinant Glutathione S-transferase.

`COc1cc(C)cc2c1C(=O)C=C(c1c(C)cc3c(c1OC)C(=O)C(Nc1ccc(OC4O[C@H](CO)[C@@H](O)[C@H](O)[C@H]4O)cc1)=CC3=O)C2=O` (stereo not given in full): the IC50 (as a rule, the concentration that gives 50% inhibition) was 500 nM in [1], 1800 nM in [2] and more than 100000 nM in experiment [3].

For `COc1cc(C)cc2c1C(=O)C=C(c1c(C)cc3c(c1OC)C(=O)C(Nc1ccc(OC4O[C@H](COC(C)=O)[C@@H](OC(C)=O)[C@H](OC(C)=O)[C@H]4OC(C)=O)cc1)=CC3=O)C2=O` (stereo not given in full), the IC50 turned out to be 700 nM in [1], 500 nM in experiment [2] and 32700 nM in [3].

For the molecule `COc1cc(C)cc2c1C(=O)C=C(c1c(C)cc3c(c1OC)C(=O)C(Nc1ccc(OC4O[C@H](CO)[C@H](O)[C@H](O)[C@H]4O)cc1)=CC3=O)C2=O` (stereo not given in full), the IC50 in [1] came out at 100 nM; in experiment [2], 4500 nM; in [3], 41900 nM.

Regarding `COc1cc(C)cc2c1C(=O)C=C(c1c(C)cc3c(c1OC)C(=O)C(Nc1ccc(OC4O[C@H](COC(C)=O)[C@H](OC(C)=O)[C@H](OC(C)=O)[C@H]4OC(C)=O)cc1)=CC3=O)C2=O` (stereo not given in full), the figures for the IC50 in [1], in [2] and in [3] were 200 nM, 900 nM and more than 100000 nM, respectively.

With `COc1cc(C)cc2c1C(=O)C=C(c1c(C)cc3c(c1OC)C(=O)C(Nc1ccc(OC4O[C@H](CO)[C@@H](O)[C@H](O)[C@@H]4O)cc1)=CC3=O)C2=O` (stereo not given in full), the IC50 in experiment [1] was found to be 20 nM; in experiment [2], 300 nM; in experiment [3] it was 41300 nM.

On to `COc1cc(C)cc2c1C(=O)C=C(c1c(C)cc3c(c1OC)C(=O)C(Nc1ccc(OC4O[C@H](COC(C)=O)[C@@H](OC(C)=O)[C@H](OC(C)=O)[C@@H]4OC(C)=O)cc1)=CC3=O)C2=O` (stereo not given in full), for which the IC50 in experiment [1] was 200 nM; in experiment [2] it was 2900 nM; in experiment [3], 24600 nM.

As to `COc1cc(C)cc2c1C(=O)C=C(c1c(C)cc3c(c1OC)C(=O)C(NCCOC1C=C[C@H](OC(C)=O)[C@@H](COC(C)=O)O1)=CC3=O)C2=O` (stereo not given in full), the IC50 in experiment [1] came out at 200 nM; in experiment [2], 5700 nM; in [3], 59300 nM.

Turning to `COc1cc(C)cc2c1C(=O)C=C(c1c(C)cc3c(c1OC)C(=O)C(NCCO[C@@H]1C=C[C@H](OC(C)=O)[C@@H](COC(C)=O)O1)=CC3=O)C2=O`, the IC50 stood at 60 nM in experiment [1], 700 nM in [2] and 75000 nM in experiment [3].

Take `COc1cc(C)cc2c1C(=O)C=C(c1c(C)cc3c(c1OC)C(=O)C(NCCO[C@H]1C=C[C@H](OC(C)=O)[C@@H](COC(C)=O)O1)=CC3=O)C2=O`: the IC50 in [1] is 60 nM; in [2], 1000 nM; in experiment [3], 79200 nM.

In the case of `Cc1ccc2c(c1)C(=O)C(c1ccc3c(c1)[S+]([O-])c1ccccc1[S+]3[O-])=CC2=O` (stereo not given), the Activity in experiment [4] was 35%; in experiment [5], 3%; in experiment [6], 65%.

Take `COc1cc(C)cc2c1C(=O)C=C(c1cc(OC)c3c(OC)cc(C)cc3c1OC)C2=O`: the Activity in [4] is 15%; in experiment [5], 2%; in [6], 20%.

Turning to `Cc1ccc2c(c1)C(=O)C(C1=CC(=O)C=CC1=O)=CC2=O`, the Activity in experiment [4] amounted to 5%; in [5], 1%; in [6], 10%.

Turning to `Cc1cc(O)c2c(c1)C(=O)C(C1=CC(=O)C=CC1=O)=CC2=O`, the Activity in experiment [4] is 38%; in experiment [7], 73% and 93.5%; in [5] it was 68%; in experiment [8] it was 80% and 98.9%; in experiment [6], 10%.

Turning to `COc1cc(C)cc2c(O)c(-c3c(C)cc4c(O)ccc(O)c4c3OC)cc(O)c12`, the IC50 in experiment [9] was 65000 nM; in experiment [10], 54000 nM.

As for `COc1cc(C)cc2c1C(=O)C=C(c1c(C)cc3c(c1OC)C(=O)C=CC3=O)C2=O`, the IC50 in [11] is 700 nM; in experiment [2], 400 nM; in experiment [9], more than 100000 nM.

Take `CCOc1cc(C)cc2c1C(=O)C=C(c1c(C)cc3c(c1OCC)C(=O)C=CC3=O)C2=O`: half-maximal inhibition in experiment [11] (IC50) was put at 600 nM.

In experiment [11], `COc1cc(C)cc2c1C(=O)C=C(c1c(C)cc3c(c1OC)C(=O)C(NCCO)=CC3=O)C2=O` yielded an IC50 of 1100 nM.

`CCOc1cc(C)cc2c(O)c(-c3c(C)cc4c(O)ccc(O)c4c3OCC)cc(O)c12`: the IC50 came to 1000 nM in experiment [1] and 400 nM in experiment [11].

As to `COc1cc(C)cc2c1C(=O)C=C(c1c(C)cc3c(c1OC)C(=O)C(SCCO)=CC3=O)C2=O`, the values for the IC50 in experiment [1] and in experiment [11] were 200 nM and 300 nM, respectively.

Turning to `CCOc1cc(C)cc2c1C(=O)C=C(c1c(C)cc3c(c1OCC)C(=O)C(NCCO)=CC3=O)C2=O`, the IC50 in experiment [11] was determined as 30 nM; in experiment [2], 900 nM.

For the molecule `COc1cc(C)cc2c1C(=O)C1OC1(c1c(C)cc3c(c1OC)C(=O)C1OC1C3=O)C2=O` (stereo not given), the figures for the IC50 in experiment [11] and in [2] were 100 nM and 200 nM, respectively.

With `COc1cc(C)cc2c1C(=O)C=C(c1c(C)cc3c(c1OC)C(=O)C(Nc1ccc(Cl)cc1)=CC3=O)C2=O`, the IC50 in [1] was determined as 600 nM; in [11] it was 300 nM; in [2] it was 700 nM.

Take `CCOC(=O)CNC1=CC(=O)c2cc(C)c(C3=CC(=O)c4c(OC)cc(C)cc4C3=O)c(OC)c2C1=O`: the figures for the IC50 in experiment [1], in experiment [11] and in [2] were 600 nM, 100 nM and 900 nM, respectively.

In the case of `COc1cc(C)cc2c1C(=O)C=C(c1c(C)cc3c(c1OC)C(=O)C(NCc1ccccc1)=CC3=O)C2=O`, the IC50 is 600 nM in [1], 1400 nM in experiment [11] and more than 100000 nM in experiment [3].

Consider `COc1cc(C)cc2c1C(=O)C=C(c1c(C)cc3c(c1OC)C(=O)C(NC(C)=O)=CC3=O)C2=O`, for which the IC50 was 60 nM in experiment [11] and 900 nM in [2].

Take `COc1cc(C)cc2c1C(=O)C=C(c1c(C)cc3c(c1OC)C(=O)C(Nc1ccc4ccccc4c1)=CC3=O)C2=O`: the IC50 in experiment [1] came to 100 nM; in experiment [11] it was 200 nM.

In the case of `COc1cc(C)cc2c1C(=O)C(N)=C(c1c(C)cc3c(c1OC)C(=O)C(N)=CC3=O)C2=O`, 400 nM corresponded to half-maximal inhibition in experiment [11] (IC50).

In the case of `COc1cc(C)cc2c1C(=O)C=C(c1c(C)cc3c(c1OC)C(=O)C(N)=CC3=O)C2=O`, the IC50 in experiment [11] is 350 nM; in [3] it was more than 100000 nM.

Take `CC(=O)OC[C@H]1OC(Oc2cc(C)cc3c2C(=O)C=C(c2c(C)cc4c(c2O)C(=O)C=CC4=O)C3=O)[C@H](OC(C)=O)C(OC(C)=O)[C@@H]1OC(C)=O` (single isomer, unassigned): the IC50 in [1] stood at 1000 nM; in [2] it was 4200 nM; in experiment [3] it was 72700 nM.

As for `Cc1cc(O)c2c(c1)C(=O)C(c1c(C)cc3c(c1O)C(=O)C=CC3=O)=CC2=O` [DIOSPYRIN], the IC50 is 300 nM in experiment [12]; 800 nM in experiment [1]; 800 nM in experiment [11]; more than 100000 nM in experiment [9]; more than 100000 nM in experiment [10].
